In PubChem BioAssay (NCI):
“And” between values parts separate entries of the source, which are not always exact repeats. Identical values can stand only once.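 Five concentrations, 48 hours, 96-well plates. The concentration for 50% growth inhibition is given as GI50. At the TGI there is no net growth.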

Legend:
Assay in all cases: NCI-60 cell line screen, 48 h
ACHN renal = test system: ACHN renal
CAKI-1 renal = test system: CAKI-1 renal
EKVX NSCLC = test system: EKVX NSCLC
HCT-15 colon = test system: HCT-15 colon
LOX IMVI melanoma = test system: LOX IMVI melanoma
MDA-MB-435 = test system: MDA-MB-435
NCI-H460 lung = test system: NCI-H460 lung
OVCAR-8 ovarian = test system: OVCAR-8 ovarian
SK-MEL-5 melanoma = test system: SK-MEL-5 melanoma
HS 578T breast = test system: HS 578T breast

Row | SMILES | GI50 (ACHN renal) | TGI (ACHN renal) | GI50 (CAKI-1 renal) | TGI (CAKI-1 renal) | GI50 (EKVX NSCLC) | TGI (EKVX NSCLC) | GI50 (HCT-15 colon) | TGI (HCT-15 colon) | GI50 (LOX IMVI melanoma) | TGI (LOX IMVI melanoma) | GI50 (MDA-MB-435) | TGI (MDA-MB-435) | GI50 (NCI-H460 lung) | TGI (NCI-H460 lung) | GI50 (OVCAR-8 ovarian) | TGI (OVCAR-8 ovarian) | GI50 (SK-MEL-5 melanoma) | TGI (SK-MEL-5 melanoma) | GI50 (HS 578T breast) | TGI (HS 578T breast)
1 | CSc1nc(N)c2c(n1)NC(c1ccccc1)C1CCc3ccccc3C1=N2 (stereo not drawn) | 84.4 µM | > 100 µM | 31.3 µM | > 100 µM | 7 µM | > 100 µM | 7.61 µM | > 100 µM | 7.16 µM | > 100 µM | 55.5 µM | > 100 µM | 8.29 µM | > 100 µM | 5.39 µM | > 100 µM | 4.79 µM | > 100 µM | – | –
2 | Cc1cc(NS(=O)(=O)c2ccc(Nc3c4ccccc4nc4c(C(=O)Nc5ccc(S(=O)(=O)N=C(N)N)cc5)ccc(Cl)c34)cc2)no1 | – | > 100 µM | – | > 100 µM | – | > 100 µM | – | – | – | 36.8 µM | – | – | – | > 100 µM | – | 38.5 µM | – | > 100 µM | – | –
3 | Brc1ccc(C2SCc3nc4ccccc4n32)cc1 (stereo not drawn) | – | 40.2 µM | – | 43 µM | – | 33.8 µM | – | 24.3 µM | – | 21 µM | – | – | – | 27.3 µM | – | 26.6 µM | – | 12.5 µM | – | –
4 | Clc1ccc(C2=NOC3C4CCC(C4)C23)cc1 (stereo not drawn) | – | > 100 µM | – | > 100 µM | – | > 100 µM | – | > 100 µM | – | – | – | – | – | > 100 µM | – | > 100 µM | – | > 100 µM | – | –
5 | COc1cc2ccc(CC(N)=O)cc2cc1OC | – | – | – | – | – | > 100 µM | – | > 100 µM | – | > 100 µM | – | – | – | – | – | > 100 µM | – | > 100 µM | – | –
6 | CCCCCCCCCCCCCCNCC(OCC)OCC | – | 27 µM | – | – | – | 34.7 µM | – | 23.2 µM | – | 32.5 µM | – | – | – | 34.3 µM | – | 40.4 µM | – | 27.9 µM | – | –
7 | Clc1cccc2c1OCC1C(c3ccccc3)=NN(c3ccccc3)C21 (stereo not drawn) | – | > 100 µM | – | – | – | > 100 µM | – | – | – | > 100 µM | – | – | – | > 100 µM | – | > 100 µM | – | 90.7 µM | – | –
8 | CCCCCSC1C2C(=O)C(Br)=CC13CCNc1c(O)c4c5c(c13)=[N+]2CCC=5C=N4 (stereo not drawn) | 1.75 µM | 3.97 µM | 2.47 µM | 4.79 µM | 1.82 µM | 5.07 µM | 2.04 µM | 6.09 µM | 0.842 µM | 3.35 µM | 0.304 µM | 0.571 µM | 1.13 µM | 4.32 µM | – | – | 1.85 µM | 3.96 µM | 5.47 µM | 16.7 µM
9 | Cc1ccc2c(CC(=O)O)cc(=O)oc2c1 | – | > 100 µM | – | > 100 µM | – | > 100 µM | – | > 100 µM | – | > 100 µM | – | – | – | > 100 µM | – | > 100 µM | – | > 100 µM | – | –
10 | CN(C)c1ccc(/C=N/NC(=O)c2cccc3ccccc23)c(Cl)c1 | 5.65 µM | > 100 µM | 0.527 µM | 8.04 µM | 3.51 µM | > 100 µM | 0.727 µM | > 100 µM | 1.86 µM | > 100 µM | – | – | 1.01 µM | > 100 µM | 3.29 µM | > 100 µM | 0.922 µM | 24.1 µM | 1.27 µM | > 100 µM
11 | COc1ccc(C#CC2=C(c3cc(OC)c(OC)c(OC)c3)C(=O)OC2)cc1 | 5.89 µM | 25.3 µM | 1.18 µM | 2.99 µM | 13.7 µM | 41.8 µM | 1.99 µM | > 50 µM | – | – | 1.49 µM | 7.82 µM | 6.65 µM | > 50 µM | 3.23 µM | 22.5 µM | 2.07 µM | 11.9 µM | 13.1 µM | > 50 µM
12 | Cc1cc2c(cc1C)[n+](Cc1ccc3ccccc3n1)cn2Cc1ccc2ccccc2n1 | 3.06 µM | 10.6 µM | – | – | 2.29 µM | 11.1 µM | 3.04 µM | 11.4 µM | 0.669 µM | 2 µM | 0.571 µM | 2.05 µM | 0.63 µM | 2.21 µM | – | – | 0.471 µM | 1.59 µM | 1.94 µM | 5.48 µM
13 | O=C1N[C@H]2[C@H](O)[C@H](O)[C@@H](O)[C@H](O)[C@@H]2c2cc3c(c(O)c21)OCO3 | – | – | 0.682 µM | – | – | – | 0.462 µM | – | 0.147 µM and 0.196 µM | – | 0.0249 µM | 1.3 µM and 0.14 µM | 0.234 µM and 0.084 µM | 0.652 µM and 0.448 µM | 0.231 µM and 0.225 µM | 1.89 µM and 0.195 µM | 0.127 µM | – | 0.021 µM and 0.0403 µM | 0.0941 µM and 0.0978 µM
14 | C/C=C1\CCC2c3[nH]c4ccccc4c3CCN2C1 (stereo not drawn) | – | > 100 µM | – | > 100 µM | – | > 100 µM | – | – | – | – | – | – | – | > 100 µM | – | > 100 µM | – | > 100 µM | – | –
15 | COC[C@@H](N=CN1CCc2cc(OC)c(OC)cc2C1)C(C)(C)C | – | > 100 µM | – | > 100 µM | – | > 100 µM | – | > 100 µM | – | – | – | – | – | > 100 µM | – | > 100 µM | – | > 100 µM | – | –
16 | C[C@]12CC[C@@H]3c4ccc(O)cc4CC[C@H]3[C@@H]1CC[C@@H]2NS(=O)(=O)c1ccc2ccccc2c1 | 2.95 µM | 10.5 µM | 3.16 µM | 10.4 µM | – | – | 2.89 µM | 10.5 µM | – | – | 2.31 µM | 5.89 µM | 2.21 µM | 4.97 µM | 3.16 µM | 11.8 µM | 1.78 µM | 3.36 µM | 2.21 µM | 7.14 µM
17 | COc1ccc2c(c1)CCN1C3=C(CCC3)C(=O)C[C@@H]21 | – | > 100 µM | – | > 100 µM | – | > 100 µM | – | > 100 µM | – | > 100 µM | – | – | – | > 100 µM | – | > 100 µM | – | > 100 µM | – | –
18 | COc1cc2c(cc1OC)[C@@H]([C@H](O)c1ccccc1)NCC2 | – | > 100 µM | – | > 100 µM | – | > 100 µM | – | > 100 µM | – | > 100 µM | – | – | – | > 100 µM | – | > 100 µM | – | > 100 µM | – | –
19 | COc1ccc2[nH]c(O)c(/C=c3/ccc4c(c3)N=C(c3ccc(F)cc3)N=4)c2c1 | – | – | 7.12 µM | > 100 µM | 14 µM | > 100 µM | 5.83 µM | > 100 µM | 2.92 µM | > 100 µM | 3.2 µM | 40 µM | 3.35 µM | 12.3 µM | 2.07 µM | 5.32 µM | – | – | 2.73 µM | 9.4 µM
20 | O=C1CCC2(c3ccccc3)Nc3ccc(Cl)cc3N12 (stereo not drawn) | – | > 100 µM | – | > 100 µM | – | > 100 µM | – | > 100 µM | – | > 100 µM | – | – | – | > 100 µM | – | > 100 µM | – | > 100 µM | – | –
21 | CC/C(CC(=O)CCC(=O)Nc1ccc(C)c(C)c1)=N\NC(=O)C(N)=O | – | > 100 µM | – | > 100 µM | – | > 100 µM | – | > 100 µM | – | – | – | – | – | – | – | > 100 µM | – | > 100 µM | – | –
